# Data as given in US20030064960A1, “Medicine for inducing osteogenesis” (priority 1999, published 2003).
# What was measured:
# [1] = system: RC-I,II cell (cultured cell derived from rat calvaria); assay: Osteogenesis inducing activity on cultured cell derived from rat calvaria (northern blotting of ALP, COL1 and OC genes); format: cell-based
# Procedure: (1) Preparation of Cultured Cell Derived from Rat Calvaria
# Cultured cell derived from rat calvaria was isolated from Wister rats (obtained from sankyo-rabo) of three days old by following method.
# The rats were killed, decapitated and their calvarias were picked out. The tissue was flaked by a tweezer and suspended into a solution for enzyme treatment, containing 0.04% of EDTA, collagenase (crude type 1A: SIGMA: 0.1%) and trypsin (0.05%). The sample was treated in the enzyme solution for 30 min under temperature of 37° C. Then, the enzyme solution was harvested and cells extricated into the enzyme solution was harvested by centrifugation (RC-I). The enzyme solution was added again and digested at 37° C. for 30 min. Cells extricated into the enzyme solution was designated as RC-II.
# The RC-I and RC-II thus obtained were mixed and used for following experiments. The cell mixture of RC-I and RC-II was designated as RC-I,II cell in following description. […] The RC-I and RC-II described above hardly expressed alkaline phosphatase (ALP), type 1 collagen (COL1) and osteocarcin (OC) gene. The genes described above are used for marker genes of osteoblast (T. R. Arnett et al, Methods in Bone Biology, 1988, Chapman & Hall).
# (3) Estimation of Osteogenesis Inducing Activity of the Lipid-bound Glycosaminoglycan
# HA-PE produced as described above was dissolved in hank's solution at concentration of 5 μg/ml and 2 ml of hank's solution containing HA-PE was poured into polystyrene culture dish with diameter of 10 cm. The dish was coated by settling the dish for 16 hours at 4° C. The dish treated by hank's solution without HA-PE was used for control.
# The RC-I,II cell suspension, prepared as described above, was poured on the dish at the density of 1×10^4 cells/cm^2. The cell was cultured in α-minimum eagle medium (MEM: GIBCO) solution containing 1% anti-biotics, anti-mycoplasma solution (containing 50 μg/ml ascorbic acid and 5 mM β-glycerophosphate, GIBCO) and 10% fatal bovine serum (FBS: GIBCO).
# At the time just after cell reached to confluent, one week after confluent and two weeks after confluent, total RNA of the cell was extracted by guanidine-phenol-chloroform method. The expression of ALP, COL1 and OC genes was analyzed by northern blotting method. The expression of these genes are used as an indicator of osteoblast differentiation. In FIG. 1, Et-Br indicates control sample obtained by staining of ribosomal RNA by ethydium bromide. Moreover, digitalized result calculated from northern blotting of FIG. 1 by Quantity One program (TOYOBO) was shown in FIG. 2 as a value standardized against the control described above.
# [2] = hyaluronic acid with a molecular weight of 20,000 to 60,000, at a concentration of 0.5 mg/ml; cited from earlier work
# [3] = RC-I,II cell cultured in dish coated with 5 μg/ml HA-PE, northern blotting at confluent, one and two weeks after confluent, vs dish treated without HA-PE
Substance,"induction of osteocyte differentiation ([1]; RC-I,II cell cultured in HA-PE coated dish (5 μg/ml))","expression of ALP gene [1, 3]","expression of COL1 gene [1, 3]","expression of OC gene [1, 3]",osteogenesis induction activity [2]
L-(α-phosphatidyl)ethanolamine dipalmytoyl conjugated hyaluronic acid [HA-PE],significant induction of osteocyte differentiation,predominant increase,predominant increase,predominant increase,
hyaluronic acid,,,,,osteogenesis induction activity
